Results published in patent US11576897B2, “Therapeutic agent for non-motor symptoms associated with Parkinson's disease” (priority 2017, dated 2023).
Counter-ions that a name gives are not always drawn. Like-named read-outs stand apart in the source and are kept apart here. Marks after values point to notes of the source that are not given here.

Key:
[1] = molecular target: human 5-HT2A receptor (Homo sapiens (Human), UniProt P28223); experiment: biochemical; format: binding
[2] = molecular target: human serotonin transporter (SERT) (Homo sapiens (Human), UniProt P31645); experiment: Human serotonin transporter (SERT) binding test
[3] = molecular target: serotonin 5-HT2A receptor (Rattus norvegicus (Rat), UniProt P14842); experiment: Rat tryptamine-induced forelimb clonic convulsion model; format: in vivo; conditions: orally or subcutaneously 60 minutes before tryptamine 25 mg/kg intravenously, SD-male rats
Procedure: Test 2: Rat Tryptamine-Induced Forelimb Clonic Convulsion Model for Evaluation of In Vivo Serotonin 5-HT2A Receptor Antagonism
Evaluation was conducted in a rodent tryptamine-induced forelimb clonic convulsion model which has been known as one of the methods for assessing the serotonin 5-HT2A receptor antagonism in vivo.
Seven-week-old SD-male rats were used. A dose solution for a test compound was prepared with 0.5% methylcellulose solution or saline for a solvent. A test compound was used in the form of a dose solution obtained by mixing with 0.5% methylcellulose solution to get cloudy (for oral administration) or dissolving in saline (for subcutaneous administration). Tryptamine was used and dissolved in saline as a substance inducing clonic convulsion.
A dose solution of a test compound or a solvent only was administered orally or subcutaneously to rats at the start of the test, and after 60 minutes of the administration, a saline solution containing tryptamine 25 mg/kg was administered intravenously to rats. Rats were transferred to an observation cage right after the administration of tryptamine, and their forelimb clonic convulsion was evaluated for 3 minutes.
The average inhibition ratio of each individual calculated from the following equation was deemed to be the inhibition ratio of each administration group. Inhibition ratio of each individual=(Average score of the solvent-administered group−Score of each individual)/Average score of the solvent-administered group×100
Statistical analysis of the test results was conducted by the following procedures with Stat Preclinica (Takumi Information Technology):
1) Jonckheere-Terpstra test was conducted in the solvent-administered group and test compound-administered group with the forelimb clonic convulsion score as indicator. […] 2) Non-parametric Dunnett's multiple comparison (Joint Ranking)-measured value was conducted between the solvent-administered group and test compound-administered group with the forelimb clonic convulsion score as indicator. […]

[4] = molecular target: human D2L receptor (Homo sapiens (Human), UniProt P14416); experiment: Dopamine D2L receptor binding test
[5] = molecular target: human 5-HT2C receptor (Homo sapiens (Human), UniProt P28335)
[6] = [3H]-ketanserin, human 5-HT2A receptor-expressed CHO cell membrane, read-out: 5-HT2A receptor binding inhibition constant Ki
[7] = [3H]-citalopram, h-SERT/CHO cell membrane, read-out: h-SERT binding inhibition constant Ki

human D2L receptor, sequence (P14416 whole entry): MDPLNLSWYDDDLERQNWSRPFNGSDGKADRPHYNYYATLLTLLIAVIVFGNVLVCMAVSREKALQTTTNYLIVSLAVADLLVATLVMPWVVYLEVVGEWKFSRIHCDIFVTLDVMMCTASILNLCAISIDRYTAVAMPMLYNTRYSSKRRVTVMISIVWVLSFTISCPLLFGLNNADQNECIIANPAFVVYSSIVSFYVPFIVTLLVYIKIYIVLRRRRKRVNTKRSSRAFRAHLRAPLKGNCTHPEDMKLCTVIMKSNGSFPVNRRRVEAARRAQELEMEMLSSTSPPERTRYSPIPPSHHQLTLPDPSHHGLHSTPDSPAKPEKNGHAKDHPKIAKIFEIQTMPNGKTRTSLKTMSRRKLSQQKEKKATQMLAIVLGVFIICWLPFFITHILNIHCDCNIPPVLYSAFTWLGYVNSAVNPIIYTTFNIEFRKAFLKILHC
human 5-HT2C receptor, sequence (P28335 whole entry, looked up): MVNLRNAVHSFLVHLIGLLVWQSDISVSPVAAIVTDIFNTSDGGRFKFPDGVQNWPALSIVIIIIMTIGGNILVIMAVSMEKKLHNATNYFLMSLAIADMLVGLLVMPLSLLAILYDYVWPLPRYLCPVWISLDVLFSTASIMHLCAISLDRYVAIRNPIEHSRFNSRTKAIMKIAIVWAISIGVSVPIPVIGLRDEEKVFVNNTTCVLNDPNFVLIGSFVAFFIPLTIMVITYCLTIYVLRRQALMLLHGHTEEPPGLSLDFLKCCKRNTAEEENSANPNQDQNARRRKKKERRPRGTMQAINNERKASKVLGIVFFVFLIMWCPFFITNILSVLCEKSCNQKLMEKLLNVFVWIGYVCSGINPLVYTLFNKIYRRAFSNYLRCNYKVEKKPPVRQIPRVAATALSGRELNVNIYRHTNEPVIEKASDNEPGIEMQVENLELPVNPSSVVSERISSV

| Compound | Ki [1, 6] [nM] | Ki [2, 7] [nM] | further results |
| --- | --- | --- | --- |
| CNCc1cc(OCc2cc(F)ccc2F)n(CC2CCCC2)n1.Cl [Example 147, 1-{1-(cyclopentylmethyl)-5-[(2,5-difluorobenzyl)oxy]-1H-pyrazol-3-yl}-N-methylmethanamine] | 2.2 | 0.61 | Inhibition ratio ([3]; dose 1 mg/kg): 46%; Inhibition ratio ([3]; dose 3 mg/kg): 46%; Inhibition ratio ([3]; dose 10 mg/kg): 71%** |
| CNCc1cc(OCc2cc(F)ccc2F)n(CC(C)(C)C)n1 [Example 504, 1-{5-[(2,5-Difluorobenzyl)oxy]-1-(2,2-dimethylpropyl)-1H-pyrazol-3-yl}-N-methylmethanamine monophosphate dihydrate] | – | – | IC50 [4]: > 1000 nM |
| [2H]C([2H])([2H])NCc1cc(OCc2ccccc2)n(CC2CCCCC2)n1 [Example 494, 1-[5-(Benzyloxy)-1-(cyclohexylmethyl)-1H-pyrazol-3-yl]-N-(^2H3)methylmethanamine] | – | – | Ki [1]: 3.6 nM; Ki [2]: 1.1 nM; Ki [5]: 7.1 nM |
| [2H]C([2H])(NC)c1cc(OCc2ccccc2)n(CC2CCCCC2)n1 [Example 492, 1-[5-(Benzyloxy)-1-(cyclohexylmethyl)-1H-pyrazol-3-yl]-N-methyl(^2H2)methanamine] | – | – | Ki [1]: 2.9 nM; Ki [2]: 1.4 nM; Ki [5]: 6.8 nM |
| CNCc1cc(OCc2ccc(F)cc2)n(C(C)C2CCCCC2)n1 (stereo not shown) [Example 295, 1-{1-(1-cyclohexylethyl)-5-[(4-fluorobenzyl)oxy]-1H-pyrazol-3-yl}-N-methylmethanamine] | 0.74 | 0.95 | – |
| [2H]C([2H])(Oc1cc(CNC)nn1CC1CCCC1)c1cc(F)ccc1F [Example 495, 1-[1-(Cyclopentylmethyl)-5-{[(2,5-difluorophenyl) (^2H2)methyl]oxy}-1H-pyrazol-3-yl]-N-methylmethanamine Hydrochloride] | 2 | – | Ki [2]: 0.24 nM; Ki [5]: 2.5 nM |
| CNCc1cc(OCc2ccccc2F)n(CC2CCCCC2)n1 [Example 20, 1-{1-(cyclohexylmethyl)-5-[(2-fluorobenzyl)oxy]-1H-pyrazol-3-yl}-N-methylmethanamine] | 0.65 | 1.6 | – |
| CNCc1cc(OCc2ccccc2C)n(C(C)C2CCCCC2)n1 (stereo not shown) [Example 298, 1-{1-(1-cyclohexylethyl)-5-[(2-methylbenzyl)oxy]-1H-pyrazol-3-yl}-N-methylmethanamine] | 3.3 | 0.56 | – |
| CNCc1cc(OCc2ccc(F)cc2C)n(C(C)C2CCCCC2)n1 (stereo not shown) [Example 302, 1-{1-(1-cyclohexylethyl)-5-[(4-fluoro-2-methylbenzyl)oxy]-1H-pyrazol-3-yl}-N-methylmethanamine] | 0.94 | 1.4 | – |
| [2H]C([2H])([2H])NC([2H])([2H])c1cc(OCc2ccccc2)n(CC2CCCCC2)n1 [Example 493, 1-[5-(Benzyloxy)-1-(cyclohexylmethyl)-1H-pyrazol-3-yl]-N-(^2H3)methyl(^2H2) methanamine] | – | – | Ki [1]: 2.3 nM; Ki [2]: 1.1 nM; Ki [5]: 7.2 nM |
| CNCc1cc(OCc2cc(Cl)ccc2F)n(CC2CC3CCC2C3)n1 (stereo not shown) [Example 118, 1-{1-(bicyclo[2.2.1]hept-2-ylmethyl)-5-[(5-chloro-2-fluorobenzyl)oxy]-1H-pyrazol-3-yl}-N-methylmethanamine] | 0.73 | 2 | – |
| Cl.[2H]C([2H])(Oc1cc(CNC)nn1CC1CCCC1)c1cc(Cl)ccc1F [Example 496, 1-[5-{[(5-Chloro-2-fluorophenyl) (^2H2)methyl]oxy}-1-(cyclopentylmethyl)-1H-pyrazol-3-yl]-N-methylmethanamine Hydrochloride] | – | – | Ki [1]: 1.7 nM; Ki [2]: 2 nM; Ki [5]: 1.1 nM |
| CNCc1cc(OCc2cc(F)ccc2F)n(CC2CC3CCC2C3)n1 (stereo not shown) [Example 117, 1-{1-(bicyclo[2.2.1]hept-2-ylmethyl)-5-[(2,5-difluorobenzyl)oxy]-1H-pyrazol-3-yl}-N-methylmethanamine] | – | 0.5 | Ki ([1]; read-out: 5-HT2A receptor binding inhibition constant Ki): 0.76 nM |
| CNCc1cc(OCc2ccc(F)cc2Cl)n(CC2CCCCC2)n1 [Example 30, 1-{5-[(2-chloro-4-fluorobenzyl)oxy]-1-(cyclohexylmethyl)-1H-pyrazol-3-yl}-N-methylmethanamine] | 0.52 | 1.5 | – |
| CNCc1cc(OCc2cc(F)ccc2F)n(CCC(C)(C)C)n1 [Example 500, 1-{5-[(2,5-Difluorobenzyl)oxy]-1-(3,3-dimethylbutyl)-1H-pyrazol-3-yl}-N-methylmethanamine Monophosphate] | – | – | IC50 [4]: > 1000 nM |
| CNCc1cc(OCc2cc(Cl)ccc2Cl)n(CC2CCCCC2)n1 [Example 38, 1-{1-(cyclohexylmethyl)-5-[(2,5-dichlorobenzyl)oxy]-1H-pyrazol-3-yl}-N-methylmethanamine] | 3.2 | 2.4 | – |
| CNCc1cc(OCc2ccccc2Cl)n(C(C)C2CCCCC2)n1 (stereo not shown) [Example 296, 1-{5-[(2-chlorobenzyl)oxy]-1-(1-cyclohexylethyl)-1H-pyrazol-3-yl}-N-methylmethanamine] | 2.1 | – | Ki [2]: 0.91 nM; Ki [5]: 6.2 nM |
| CNCc1nn(CC2CCCCC2)c(OCc2cc(F)ccc2F)c1F [Example 351] | 15 | 0.98 | – |
| CNCc1cc(OCc2ccc(F)cc2Cl)n(C(C)C2CCCCC2)n1 (stereo not shown) [Example 301, 1-{5-[(2-chloro-4-fluorobenzyl)oxy]-1-(1-cyclohexylethyl)-1H-pyrazol-3-yl}-N-methylmethanamine] | 0.88 | 1.3 | – |
| CNCc1cc(OCc2ccccc2)n(CC2(C)CCCCC2)n1 [Example 331, 1-{5-(benzyloxy)-1-[(1-methylcyclohexyl)methyl]-1H-pyrazol-3-yl}-N-methylmethanamine] | 2.8 | 1.3 | – |
| CNCc1cc(OCc2cc(Cl)ccc2F)n(CCC(C)(C)OC)n1 [Example 275, 1-{5-[(5-chloro-2-fluorobenzyl)oxy]-1-(3-methoxy-3-methylbutyl)-1H-pyrazol-3-yl}-N-methylmethanamine] | 5.9 | – | IC50 [4]: > 1000 nM |
